PMC12621043, “Un-LOK-ing a New Approach for Conformational Selective Targeting of STK10 (LOK)” (ACS Medicinal Chemistry Letters, 2025)

Key:
Assay in all cases: DSF Tm panel
Format in all cases: binding
Conditions in all cases: 10 μM compound
PKMYT1A = molecular target: T1, PKMYT1A (Homo sapiens, UniProt Q99640)
T1 construct: purchased in-house DSF kinase panel (SGC-style construct names; the trailing letter is the construct ID)
T1 sequence (Q99640 75-362): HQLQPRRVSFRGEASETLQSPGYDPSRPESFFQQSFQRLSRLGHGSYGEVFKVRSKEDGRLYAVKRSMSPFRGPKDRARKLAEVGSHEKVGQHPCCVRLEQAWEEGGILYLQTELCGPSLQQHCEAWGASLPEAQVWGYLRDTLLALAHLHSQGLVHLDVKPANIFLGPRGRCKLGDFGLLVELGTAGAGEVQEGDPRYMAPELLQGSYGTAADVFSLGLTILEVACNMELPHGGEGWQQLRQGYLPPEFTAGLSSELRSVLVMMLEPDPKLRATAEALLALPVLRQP

MAPK9A = molecular target: T2, MAPK9A (Homo sapiens, UniProt P45984)
T2 construct: purchased in-house DSF kinase panel (SGC-style construct names; the trailing letter is the construct ID)
T2 sequence (P45984 7-364): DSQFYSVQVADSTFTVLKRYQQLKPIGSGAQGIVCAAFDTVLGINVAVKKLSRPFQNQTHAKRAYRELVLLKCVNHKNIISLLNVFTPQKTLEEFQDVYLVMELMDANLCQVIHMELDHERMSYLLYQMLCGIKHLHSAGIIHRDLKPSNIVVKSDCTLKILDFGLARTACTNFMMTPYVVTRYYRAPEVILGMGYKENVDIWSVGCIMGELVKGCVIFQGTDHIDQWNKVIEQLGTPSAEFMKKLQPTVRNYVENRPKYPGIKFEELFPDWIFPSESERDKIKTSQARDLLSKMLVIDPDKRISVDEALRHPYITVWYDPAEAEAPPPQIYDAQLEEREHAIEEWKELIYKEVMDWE

BMP2KA = molecular target: T3, BMP2KA (Homo sapiens, UniProt Q9NSY1)
T3 construct: purchased in-house DSF kinase panel (SGC-style construct names; the trailing letter is the construct ID)
T3 sequence (Q9NSY1 38-345): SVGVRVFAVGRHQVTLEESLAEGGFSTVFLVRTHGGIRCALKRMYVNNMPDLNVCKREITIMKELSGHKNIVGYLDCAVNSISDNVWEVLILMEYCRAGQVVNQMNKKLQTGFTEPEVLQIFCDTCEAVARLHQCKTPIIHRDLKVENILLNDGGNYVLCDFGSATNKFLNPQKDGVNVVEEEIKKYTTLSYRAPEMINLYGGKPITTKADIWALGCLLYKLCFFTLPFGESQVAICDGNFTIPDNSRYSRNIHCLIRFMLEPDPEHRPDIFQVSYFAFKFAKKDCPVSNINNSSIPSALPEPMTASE

CLK1A = molecular target: T4, CLK1A (Homo sapiens, UniProt P49759)
T4 construct: purchased in-house DSF kinase panel (SGC-style construct names; the trailing letter is the construct ID)
T4 sequence (P49759 148-484): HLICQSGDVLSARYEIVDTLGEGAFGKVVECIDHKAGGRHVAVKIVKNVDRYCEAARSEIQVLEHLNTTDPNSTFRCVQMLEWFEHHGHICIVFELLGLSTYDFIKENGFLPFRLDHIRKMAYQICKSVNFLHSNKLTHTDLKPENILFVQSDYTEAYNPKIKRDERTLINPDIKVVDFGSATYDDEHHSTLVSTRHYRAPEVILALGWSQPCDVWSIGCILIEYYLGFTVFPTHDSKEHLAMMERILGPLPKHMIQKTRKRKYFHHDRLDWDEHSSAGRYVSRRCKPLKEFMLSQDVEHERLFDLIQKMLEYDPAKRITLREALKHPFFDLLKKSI

MAP3K5A = molecular target: T5, MAP3K5A (Homo sapiens, UniProt Q99683)
T5 construct: purchased in-house DSF kinase panel (SGC-style construct names; the trailing letter is the construct ID)
T5 sequence (Q99683 659-951): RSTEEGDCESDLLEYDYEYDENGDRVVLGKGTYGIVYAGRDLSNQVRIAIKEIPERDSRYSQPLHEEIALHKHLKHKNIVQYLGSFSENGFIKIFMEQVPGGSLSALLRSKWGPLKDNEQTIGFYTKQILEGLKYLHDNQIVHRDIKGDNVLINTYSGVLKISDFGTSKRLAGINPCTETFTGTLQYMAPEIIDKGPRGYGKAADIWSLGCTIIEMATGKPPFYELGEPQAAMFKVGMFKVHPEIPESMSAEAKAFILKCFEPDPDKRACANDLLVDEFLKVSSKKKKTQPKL

CSNK1DA = molecular target: T6, CSNK1DA (Homo sapiens, UniProt P48730)
T6 construct: purchased in-house DSF kinase panel (SGC-style construct names; the trailing letter is the construct ID)
T6 sequence (P48730 1-294): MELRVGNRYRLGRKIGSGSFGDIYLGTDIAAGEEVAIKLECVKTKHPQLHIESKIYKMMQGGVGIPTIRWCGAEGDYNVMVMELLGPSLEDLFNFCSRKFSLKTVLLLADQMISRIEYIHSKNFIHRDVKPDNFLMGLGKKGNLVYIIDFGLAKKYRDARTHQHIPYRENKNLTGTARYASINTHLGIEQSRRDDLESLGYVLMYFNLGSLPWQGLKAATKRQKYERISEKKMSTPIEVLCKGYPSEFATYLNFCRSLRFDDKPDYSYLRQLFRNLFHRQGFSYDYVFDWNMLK

AAK1 (AAK1A) = molecular target: T7, AAK1 (AAK1A) (Homo sapiens, UniProt Q2M2I8)
T7 construct: purchased in-house DSF kinase panel (SGC-style construct names; the trailing letter is the construct ID)
T7 sequence (Q2M2I8 27-365): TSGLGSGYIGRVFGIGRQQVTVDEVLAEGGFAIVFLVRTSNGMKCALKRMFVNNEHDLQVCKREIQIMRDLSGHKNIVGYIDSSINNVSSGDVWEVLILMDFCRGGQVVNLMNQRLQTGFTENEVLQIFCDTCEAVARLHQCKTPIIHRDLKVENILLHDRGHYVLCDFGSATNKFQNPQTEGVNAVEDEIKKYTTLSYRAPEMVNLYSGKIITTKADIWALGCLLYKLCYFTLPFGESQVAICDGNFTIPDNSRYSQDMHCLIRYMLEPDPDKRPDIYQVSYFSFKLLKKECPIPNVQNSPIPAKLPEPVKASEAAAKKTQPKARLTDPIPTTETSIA

GSG2A = molecular target: T8, GSG2A (Homo sapiens, UniProt Q8TF76)
T8 construct: purchased in-house DSF kinase panel (SGC-style construct names; the trailing letter is the construct ID)
T8 sequence (Q8TF76 465-798): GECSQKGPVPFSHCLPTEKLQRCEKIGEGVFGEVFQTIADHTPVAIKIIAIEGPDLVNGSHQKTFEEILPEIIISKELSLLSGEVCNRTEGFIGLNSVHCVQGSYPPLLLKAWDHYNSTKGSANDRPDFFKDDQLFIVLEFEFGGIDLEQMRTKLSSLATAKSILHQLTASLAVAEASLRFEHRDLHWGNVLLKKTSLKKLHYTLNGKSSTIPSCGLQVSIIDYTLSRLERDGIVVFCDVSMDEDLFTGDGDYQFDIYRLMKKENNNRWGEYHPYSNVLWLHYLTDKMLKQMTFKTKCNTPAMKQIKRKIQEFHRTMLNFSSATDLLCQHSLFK

FGFR2A = molecular target: T9, FGFR2A (Homo sapiens, UniProt P21802)
T9 construct: purchased in-house DSF kinase panel (SGC-style construct names; the trailing letter is the construct ID)
T9 sequence (P21802 458-770): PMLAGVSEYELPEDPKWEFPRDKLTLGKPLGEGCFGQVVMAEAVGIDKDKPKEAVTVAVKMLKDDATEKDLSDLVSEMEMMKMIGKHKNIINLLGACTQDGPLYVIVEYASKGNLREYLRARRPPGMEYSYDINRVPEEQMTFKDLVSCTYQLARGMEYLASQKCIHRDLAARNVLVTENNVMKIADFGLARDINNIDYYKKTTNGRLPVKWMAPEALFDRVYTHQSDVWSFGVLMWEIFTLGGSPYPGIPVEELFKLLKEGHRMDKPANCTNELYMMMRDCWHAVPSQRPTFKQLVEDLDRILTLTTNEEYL

DYRK1AA = molecular target: T10, DYRK1AA (Homo sapiens, UniProt Q13627)
T10 construct: purchased in-house DSF kinase panel (SGC-style construct names; the trailing letter is the construct ID)

EPHB3A = molecular target: T11, EPHB3A (Homo sapiens, UniProt P54753)
T11 construct: purchased in-house DSF kinase panel (SGC-style construct names; the trailing letter is the construct ID)
T11 sequence (P54753 34-998): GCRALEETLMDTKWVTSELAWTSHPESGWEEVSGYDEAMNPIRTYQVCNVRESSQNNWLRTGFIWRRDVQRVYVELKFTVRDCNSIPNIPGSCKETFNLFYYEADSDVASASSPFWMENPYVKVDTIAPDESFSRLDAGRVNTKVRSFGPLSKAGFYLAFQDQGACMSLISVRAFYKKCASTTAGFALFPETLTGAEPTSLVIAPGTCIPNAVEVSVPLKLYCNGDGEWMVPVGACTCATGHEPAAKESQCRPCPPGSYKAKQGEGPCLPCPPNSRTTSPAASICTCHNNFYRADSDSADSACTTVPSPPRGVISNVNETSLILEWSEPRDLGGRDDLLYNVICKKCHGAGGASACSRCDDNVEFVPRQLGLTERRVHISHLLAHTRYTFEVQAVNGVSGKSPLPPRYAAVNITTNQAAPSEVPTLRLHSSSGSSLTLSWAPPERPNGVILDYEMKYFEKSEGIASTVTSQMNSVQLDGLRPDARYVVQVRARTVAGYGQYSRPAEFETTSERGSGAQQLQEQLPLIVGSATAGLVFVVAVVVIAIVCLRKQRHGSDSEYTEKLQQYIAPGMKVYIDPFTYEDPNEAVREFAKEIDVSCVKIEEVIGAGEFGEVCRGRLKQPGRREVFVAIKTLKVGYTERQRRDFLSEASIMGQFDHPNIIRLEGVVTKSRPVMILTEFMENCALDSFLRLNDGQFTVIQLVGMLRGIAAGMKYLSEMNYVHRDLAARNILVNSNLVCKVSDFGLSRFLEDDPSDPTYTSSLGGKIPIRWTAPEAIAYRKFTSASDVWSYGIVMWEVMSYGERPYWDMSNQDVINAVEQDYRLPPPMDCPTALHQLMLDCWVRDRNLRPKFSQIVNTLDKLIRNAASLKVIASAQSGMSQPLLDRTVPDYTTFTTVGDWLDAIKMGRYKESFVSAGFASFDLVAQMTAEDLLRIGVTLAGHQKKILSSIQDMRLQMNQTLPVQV

ΔTm at 10 µM (PKMYT1A) [°C]	ΔTm at 10 µM (MAPK9A) [°C]	ΔTm at 10 µM (BMP2KA) [°C]	ΔTm at 10 µM (CLK1A) [°C]	ΔTm at 10 µM (MAP3K5A) [°C]	ΔTm at 10 µM (CSNK1DA) [°C]	ΔTm at 10 µM (AAK1 (AAK1A)) [°C]	ΔTm at 10 µM (GSG2A) [°C]	ΔTm at 10 µM (FGFR2A) [°C]	ΔTm at 10 µM (DYRK1AA) [°C]	ΔTm at 10 µM (EPHB3A) [°C]	Structure (SMILES)
1.5	0.5	8.7	2.9	1.6	0.4	5.5	0	3.3	1.1	0.2	O=C(NCc1cccc(Cl)c1)Nc1ccc2cc1OCCOCCNc1ccn3ncc-2c3n1 [compound 18]
0.5	-1.2	6.7	1	1.4	0.2	4	0	2.2	0.4	0.7	Cc1cc(Br)ccc1CNC(=O)Nc1ccc2cc1OCCOCCNc1ccn3ncc-2c3n1 [compound 24]
1	0.4	9.2	4.5	1	0.6	7	-0.3	1.7	-1.3	0.3	O=C(NCc1ccccc1Cl)Nc1ccc2cc1OCCOCCNc1ccn3ncc-2c3n1 [compound 17]
1.1	-0.2	7.7	2.3	2.1	-0.5	4.7	0.9	2.3	1.6	1.4	O=C(NCc1ccc(C(F)(F)F)cc1)Nc1ccc2cc1OCCOCCNc1ccn3ncc-2c3n1 [compound 28]
-0.1	-2.1	8.3	2.8	1	0.2	5.5	0.6	2.9	-0.5	0.4	COc1ccccc1CNC(=O)Nc1ccc2cc1OCCOCCNc1ccn3ncc-2c3n1 [compound 29]
0.3	-1.6	9.1	2.1	0.9	-0.1	5	0.6	3.5	0.8	0.9	Cc1ccc(F)cc1CNC(=O)Nc1ccc2cc1OCCOCCNc1ccn3ncc-2c3n1 [compound 26]
1.6	1.5	6.7	2.1	2.2	0.4	6.3	0	0.9	0.6	0.1	O=C(NCc1ccc(Cl)cc1Cl)Nc1ccc2cc1OCCOCCNc1ccn3ncc-2c3n1 [compound 20]
0.8	0.4	11.8	2.9	1.7	0.5	7.7	1.3	1.5	-1.5	0.6	CN1CCN(C(=O)Nc2ccc3cc2OCCOCCNc2ccn4ncc-3c4n2)CC1 [compound 35]
2.1	2	5.9	2.6	1	1.2	6.5	-0.1	1.9	2.6	0.9	Cc1cc(Cl)ccc1CNC(=O)Nc1ccc2cc1OCCOCCNc1ccn3ncc-2c3n1 [compound 23]
-0.1	-2	9.1	3.1	0.8	-0.1	5.9	0.1	2.8	-0.1	0.5	C[C@H](NC(=O)Nc1ccc2cc1OCCOCCNc1ccn3ncc-2c3n1)c1ccccc1 [compound 34]
